Experimental data as given in paper PMC7005452 (Heliyon, 2020).
Where two headings read alike, the source gives them in different places.

Assays:
[1] = WST-1 cytotoxicity / cell viability assay; format: cell-based, human; conditions: human, HEK293 cells, log-probit on percentage mortality, read-out: LC50
Experimental: (§1) Human embryonic kidney 293 (HEK293) and CACO2 cells were purchased from ATCC. Cells were cultured in DMEM (Corning, USA) supplemented with 10% FBS (Gibco, USA) and 1% penicillin/streptomycin (Gibco, USA). SH-SY5Y cells were gifted by Dr. Dong-Hyung Cho's laboratory in the Dept. of Life Science at Kyungpook National University and were grown in DMEM with high glucose (Gibco, USA). Cells were grown to 80–90% confluence in a 10 cm plate before splitting into a 96 well plate. […] After 48 h incubation, 10% (v/v) of water soluble tetrazolium salt (WST, DoGen Inc., South Korea) was added to each well, following the manufacturer's instruction. Orange color development for enzyme-substrate reaction was monitored, using spectrophotometry at 450 nm (Tecan Sunrise, Switzerland).
(§2) One-way ANOVA, followed by a post-hoc Tukey's HSD test, was used to determine differences in toxicity, and repellency percentages (P < 0.05) (SAS for Window release 6, SAS Institute). All percentage mortality data were corrected using Abbott's formula ([Abbott, 1987]). […] Adult repellency percentage was calculated using the formula PR (%) = [(C-T)/(C + T)] × 100 ([Liu et al., 2013]). All analyses were performed in SAS version 9.4. All the graphs were drawn with SigmaPlot 12.5 (Systat Software, Inc., San Jose, CA, USA).
(§3) As the safety of agricultural products and foods became a major concern and issue in the modern society, validating the effects of pesticides on human physiology and setting the safety limits of their use is important ([Fan and Jackson, 1989]; [Kim et al., 2017]). […] WST-1 is a substrate of mitochondrial dehydrogenases and is converted to a colored dye called formazan in viable cells. Because the intensity of dye is proportional to the amount of enzyme, WST-1 reagent cell proliferation assay is widely used to measure the cell viability ([Ngamwongsatit et al., 2008]).

[2] = system: HEK293 cells; experiment: WST-1 cytotoxicity / cell viability assay; format: cell-based, human
Experimental: as §1, §2, §3

[3] = WST-1 cytotoxicity / cell viability assay; format: cell-based, human; conditions: human, SH-SY5Y cells, log-probit on percentage mortality, read-out: LC50
Experimental: as §1, §2
(§4) It has also been used as a preservative for cosmetic products. In addition, it was reported that methylparaben is a chemical compound present in local anesthetic that can alter the function of the human nervous system ([Nathan and Sears, 1961]).

[4] = system: SH-SY5Y cells; experiment: WST-1 cytotoxicity / cell viability assay; format: cell-based, human
Experimental: as §1, §2, §4

[5] = system: CCNB1 (cyclin B1); experiment: Real-time PCR, cyclin B1 mRNA expression in HEK293 cells; format: cell-based, human; conditions: HEK293, 48 h, MB 4.4 mM, EB 1.7 mM, VB 1.7 mM, ACTIN reference
Experimental: (§5) HEK293 and SH-SY5Y cells were grown to 60–70% confluence in 6 well plates and the media were exchanged with the ones including the chemicals, MB, EB, or VB in the given concentrations. After 48 h incubation, the cells were washed with cold PBS once and scraped. The cells were washed again with cold PBS twice before extracting total RNA molecules using Qiagen RNeasy kit. cDNAs were constructed from 600 ng of the collected RNAs using Reverse Transcription System (Promega, Japan). cDNA was analyzed through real-time quantifying PCR using SYBR Green Realtime PCR Master Mix (Toyobo, Japan) according to the manufacturer's instructions (CFX96 Touch Real-time PCR System, Bio-Rad).
(§6) Further, we prompted to assess whether the gene expression of cell cycle and stress regulators such as cyclins and HSP70 is affected by MB, EB, and VB. These chemicals were applied to the HEK293 or SH-SY5Y cells at the concentrations of 4.4 mM [0.06% MB, 0.05% (3.7 mM) for SH-SY5Y cells], 1.7 mM (0.025%, EB), and 1.7 mM (0.025%, VB), respectively, for 48 h before extracting the total RNAs from the cells. The concentrations were chosen based on the LC50 values, approximately a third of the values, that would not cause cell death but could influence the gene expression in the tested cells. mRNAs of HSP70, CCNB1 (cyclin B1), and CCND1 (cyclin D1) were quantified by real-time PCR with ACTIN as a reference gene. Cyclin B1 is a checkpoint regulator for S/G2 transition, whereas cyclin D1 is for G1 progression ([Baldin et al., 1993]; [Hwang et al., 1995]). […] The mRNA expression of HSP70, a stress-inducible gene ([Huang et al., 2001]), decreased in MB-, EB-, and VB-treated HEK293 cells, and VB-treated samples showing the least expression (Figure 4A). […] For SH-SY5Y cells, we also measured the mRNA expression of AChE, acetylcholinesterase gene ([Dvir et al., 2010]), because of the similar structure of these chemicals to methylparaben ([Nathan and Sears, 1961]) and of the fact that MB has been reported to have a repellent effect against some insect pests such as Bemisia tabaci (Gennadius) ([Mostafiz et al., 2018]).

[6] = system: HSP70; experiment: Real-time PCR, HSP70 mRNA expression in HEK293 cells; format: cell-based, human; conditions: HEK293, 48 h, MB 4.4 mM, EB 1.7 mM, VB 1.7 mM, ACTIN reference
Experimental: as §5, §6

[7] = system: HSP70, CCNB1 (cyclin B1), and CCND1 (cyclin D1); experiment: Real-time PCR, HSP70, CCNB1 and CCND1 mRNA expression in SH-SY5Y cells; format: cell-based, human; conditions: 48 h, MB 3.7 mM, EB 1.7 mM, VB 1.7 mM
Experimental: as §5, §6

[8] = system: AChE, acetylcholinesterase gene; experiment: Real-time PCR, AChE mRNA expression in SH-SY5Y cells; format: cell-based, human; conditions: 48 h, MB 3.7 mM, EB 1.7 mM, VB 1.7 mM
Experimental: as §5, §6

[9] = WST-1 cytotoxicity / cell viability assay; format: cell-based, human; conditions: human, CACO2 cells; CACO2, WST assay, log-probit on percentage mortality; read-out: LC50
Experimental: as §1, §2
(§7) Ingested residual pesticides from agricultural foods may stay in the colon for a longer time than any other organs.

[10] = system: CACO2 cells; experiment: WST-1 cytotoxicity / cell viability assay; format: cell-based, human; conditions: for reduction in CACO2 cells in the WST-1 assay: acetone-T20 solvent
Experimental: as §1, §2, §7

[11] = Crystal violet cell staining assay; format: cell-based; conditions: human, HEK293 cells, in agreement with WST-1, read-out: upper limit of MB concentration for HEK293 cell viability
Experimental: For the crystal violet experiment, cells were split into a 96 well and MB was applied to each well as described above and then HEK293 cells were grown for 1–2 days and CACO2 cells for 4–5 days. Crystal violet staining method published by M. [Feoktistova et al., (2016)] was used without modifications. The resultant plate was taken picture of. In addition, the stained cells were dissolved in methanol and the intensity of color was measured at 595 nm (Tecan Sunrise, Switzerland).

[12] = Visual observation of aggregates in cell culture media; format: physicochemical; conditions: MB higher than 5.5 mM (0.075%) applied to the media; persisted with T20
Experimental: Therefore, we aimed to identify an upper limit of MB concentration between 0.1 and 11 mM (0.001% and 0.15%) where the growth of HEK293 cells was less affected. Seven MB concentrations, 0, 0.1, 0.7, 3.7, 5.5, 7.0, 11 mM (0%, 0.001%, 0.01%, 0.05%, 0.075%, 0.1%, and 0.15%), were applied to HEK293 cells and the WST-1 experiment was performed. […] This might be because of the hydrophobicity of MB which causes it to form aggregates facilitated by the aqueous condition in the cell culture media. […] The WST-1 data were similar to the results without T20, except for 5.5 mM MB. […] We attributed the increased sensitivity of MB concentration 5.5 mM (0.075%) in the acetone-T20 solvent to the synergistic cytotoxic effect in the presence of the detergent, T20 with MB or the enhanced solubility of MB.

[13] = system: CCND1 (cyclin D1); experiment: Real-time PCR, cyclin D1 mRNA expression in HEK293 cells; format: cell-based, human; conditions: HEK293, 48 h, VB 1.7 mM, ACTIN reference
Experimental: as §5
Further, we prompted to assess whether the gene expression of cell cycle and stress regulators such as cyclins and HSP70 is affected by MB, EB, and VB. These chemicals were applied to the HEK293 or SH-SY5Y cells at the concentrations of 4.4 mM [0.06% MB, 0.05% (3.7 mM) for SH-SY5Y cells], 1.7 mM (0.025%, EB), and 1.7 mM (0.025%, VB), respectively, for 48 h before extracting the total RNAs from the cells. The concentrations were chosen based on the LC50 values, approximately a third of the values, that would not cause cell death but could influence the gene expression in the tested cells. mRNAs of HSP70, CCNB1 (cyclin B1), and CCND1 (cyclin D1) were quantified by real-time PCR with ACTIN as a reference gene. […]

[14] = system: HSP70; experiment: Western blot, HSP70 protein level in HEK293 cells; format: cell-based, human; conditions: HEK293, VB 1.7 mM (250 ppm), α-Tubulin loading control
Experimental: HEK293 cells grown in 6 well plates for Western blots and SDS polyacrylamide gel electrophoresis (SDS-PAGE) were washed with cold PBS twice and scraped in RIPA buffer (Cell Signaling, Cat. 9806, USA). Protein concentration in each sample was measured through Bradford assay using Bio-Rad Protein Assay Dye Reagent Concentrate (Bio-Rad #5000006) and spectrophotometry at 595 nm (Tecan Sunrise™ Absorbance Microplate Reader, Switzerland). From the measured protein concentration, a total of 15 μg of proteins per each sample were loaded on 7% SDS-PA gels, blotted onto nitrocellulous membrane, and probed for HSP70 and α-Tubulin using corresponding antibody (HSP70, Santa Cruz sc-32239; α-Tubulin, Santa Cruz sc-8035) in Western blot assay.
Further, we prompted to assess whether the gene expression of cell cycle and stress regulators such as cyclins and HSP70 is affected by MB, EB, and VB. […] The concentrations were chosen based on the LC50 values, approximately a third of the values, that would not cause cell death but could influence the gene expression in the tested cells. mRNAs of HSP70, CCNB1 (cyclin B1), and CCND1 (cyclin D1) were quantified by real-time PCR with ACTIN as a reference gene. […]

[15] = log-probit on percentage mortality
[16] = log-probit on percentage mortality, read-out: LC50 (the source's name)

| SMILES | CC50 at 48 h [1] | LC50 [2, 15] | CC50 at 48 h [3] | LC50 [4, 15] | cyclin B1 mRNA expression compared with solvent control [5] | HSP70 mRNA expression compared with solvent control [6] | mRNA expression of HSP70, CCNB1 and CCND1 [7] | AChE mRNA expression [8] | CC50 at 48 h [9] | reduction in CACO2 cells in the WST-1 assay ([10]; CACO2, MB 3.7 mM (0.05%)) | reduction in CACO2 cells in the WST-1 assay ([10]; CACO2, MB 7.3 mM (0.1%)) | LC50 ([10]; CACO2, WST assay, log-probit on percentage mortality) | viability [11] | aggregate formation in cell culture media [12] | relative toxicity among MB, EB and VB [2] | CC50 [2, 16] | relative toxicity among MB, EB and VB [4] | CC50 [4, 16] | cyclin D1 mRNA expression compared with solvent control [13] | HSP70 protein level [14] |
| --- | --- | --- | --- | --- | --- | --- | --- | --- | --- | --- | --- | --- | --- | --- | --- | --- | --- | --- | --- | --- |
| CCOC(=O)c1ccccc1 [EB, ethyl benzoate] | 6.9 mM | 0.104% | 7.3 mM | 0.11% | rarely differentiated | decreased | did not display notable differential expressions | hardly any change |  |  |  |  |  |  |  |  |  |  |  |  |
| COC(=O)c1ccccc1 [MB, Methyl benzoate] | 13.2 mM | 0.18% | 11 mM | 0.15% | rarely differentiated | decreased | did not display notable differential expressions | hardly any change | 20.6 mM | about 30% | > 90% | 0.28% | ≤ 0.05% | formed silver-colored aggregates |  |  |  |  |  |  |
| C=COC(=O)c1ccccc1 [VB, vinyl benzoate] |  | 0.08% |  | 0.09% | rarely differentiated | decreased | did not display notable differential expressions | mild increase |  |  |  |  |  |  | most toxic | 5.4 mM | most toxic | 6.1 mM | noticeable reduction | consistently decreased |
